# Columns and labels:
# [1] = test system: isolate of guinea-pig ileum; conditions: background statement on the non-fluorine analog; cited from earlier work
# [2] = test system: isolate of guinea-pig ileum; assay: Anti-histamine activity in an isolate of guinea-pig ileum, suspended in a Tyrode bath at 32°-35° C.; conditions: for IC50: Cavia porcellus, isolated guinea-pig ileum, Tyrode bath, 32°-35° C., read-out: anti-histamine activity, ED50
# Experimental: The anti-histamine activity was tested in an isolate of guinea-pig ileum, suspended in a Tyrode bath at 32°-35° C. according to a protocol described by R. A. Turner (Screening Methods in Pharmacology, Academic Press, 1965, p. 43).
# [3] = Activity on the blood stream (vasoactive, antiarrhythmic, hypotensor); conditions: no test described
IC50 [2] [nM],Structure (SMILES),anti-histaminic effect (in words) [1],activity on the blood stream (in words) [3],antihistaminic effect compared with non-fluorine analog (in words) ([2]; versus non-fluorine analog (Spanish Pat. No. 514 340))
350,"c1ccc(C(c2ccccc2)N2CCN(CCCC3(c4ccccc4)OCCO3)CC2)cc1 [Spanish Pat. 514 340, reference compound]",unsatisfactory,,
150,"Fc1ccc(C(c2ccc(F)cc2)N2CCN(CCCC3(c4ccccc4)OCCO3)CC2)cc1 [Example 1, 1-(4,4'-difluorobenzhydryl)-4-(2-phenyl-1,3-dioxolane-2-propyl)piperazine]",,strong activity on the blood stream,higher than that of its non-fluorine analog

# Source: patent publication US4603134A, “Piperazine derivative and pharmaceutical composition containing the same” (Ferrer International, S.A., priority 1984, dated 1986)
